For one assay, the target named is MOD-1 channel (Caenorhabditis elegans, UniProt Q9GQ00). In words: Voltage clamp of MOD-1 heterologously expressed in Xenopus oocytes or HEK cells. The assay is classed as cell-based, C. elegans.
The target of assay [1] is T1, 5-HT3a channel (Homo sapiens, UniProt P46098).
T1 sequence (P46098 24-478): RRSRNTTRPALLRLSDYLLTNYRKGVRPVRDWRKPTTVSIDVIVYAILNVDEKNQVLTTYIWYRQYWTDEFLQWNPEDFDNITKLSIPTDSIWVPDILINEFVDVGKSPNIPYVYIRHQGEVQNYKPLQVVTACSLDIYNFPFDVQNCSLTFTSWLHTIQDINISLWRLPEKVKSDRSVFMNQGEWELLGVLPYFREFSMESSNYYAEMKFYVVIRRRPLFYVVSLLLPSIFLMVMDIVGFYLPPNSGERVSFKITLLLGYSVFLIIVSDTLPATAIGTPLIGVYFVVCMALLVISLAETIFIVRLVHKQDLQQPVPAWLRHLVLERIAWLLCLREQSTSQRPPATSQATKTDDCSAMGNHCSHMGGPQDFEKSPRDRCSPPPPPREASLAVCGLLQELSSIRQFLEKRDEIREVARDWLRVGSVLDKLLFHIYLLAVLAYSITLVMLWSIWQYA

For the next assay, the system named is C. elegans. In words: Enhanced slowing response (locomotion) of food-deprived C. elegans on a bacterial lawn. In kind it is in vivo.
Assay [2] relates to MOD-1-like serotonin-activated current. Put plainly: Voltage clamp of Xenopus oocytes injected with rat brain RNA (MOD-1-like response). The conditions noted are these: −70 mV, BAPTA-AM 200 μM. In kind it is cell-based. As for the experimental part:
A method to identify a mammalian serotonin-gated chloride channel was carried out essentially as described above. Oocytes were injected with rat cortex RNA. […] The oocytes were then screened under a voltage clamp, in a buffer containing 96 mM NaCl, 2 mM KCl, 0.3 mM CaCl2, 1 mM MgCl2, and 5 mM HEPES (pH 7.5), and with 100 mM Tris added.
In additional studies, oocytes were injected with poly(A)+ RNA from rat cortex, striatum, or thalamus, as described above. The oocytes were bathed in 200 μM BAPTA-AM for 2 hours, and were then screened under a voltage clamp, in a bath solution containing 2 mM Co^2+ to block 5-HT3a responses. […] FIG. 12 is a representative time trace of a MOD-1-like response from an oocytes injected with rat cortex RNA. These MOD-1-like currents were not detected in oocytes injected with rat RNA from spinal cord, heart, lung, or testes.

Assay [3] has as its target T1, 5-HT3a channel. The conditions noted are these: read-out: IC 50, competitive antagonist of the 5-HT3a channel; cited from earlier work.
The mark [4] stands for this setting: pretreatment of wild-type C. elegans, food-deprived.

Where two headings read alike, the source gives them in different places.

Sequence of MOD-1 channel (Q9GQ00 whole entry, looked up): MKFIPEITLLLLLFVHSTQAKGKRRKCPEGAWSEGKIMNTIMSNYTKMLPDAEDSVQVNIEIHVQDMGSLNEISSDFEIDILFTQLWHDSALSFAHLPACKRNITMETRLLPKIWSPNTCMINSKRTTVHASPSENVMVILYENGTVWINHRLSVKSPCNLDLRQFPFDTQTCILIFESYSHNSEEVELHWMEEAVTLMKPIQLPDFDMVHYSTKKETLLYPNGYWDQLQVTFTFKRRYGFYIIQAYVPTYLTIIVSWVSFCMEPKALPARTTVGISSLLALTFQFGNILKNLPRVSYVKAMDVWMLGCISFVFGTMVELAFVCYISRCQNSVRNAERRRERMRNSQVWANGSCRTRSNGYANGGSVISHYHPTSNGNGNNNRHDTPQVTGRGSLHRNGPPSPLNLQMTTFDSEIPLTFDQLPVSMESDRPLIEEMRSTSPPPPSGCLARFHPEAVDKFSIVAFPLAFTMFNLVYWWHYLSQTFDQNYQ

Turning to `CC(=O)OCOC(=O)CN(CC(=O)OCOC(C)=O)c1ccccc1OCCOc1ccccc1N(CC(=O)OCOC(C)=O)CC(=O)OCOC(C)=O` [BAPTA-AM], at MOD-1 channel (approximately 200 μM in the bath), the “effect on the function of MOD-1” value is listed as “does not affect the function of MOD-1”.

`NCCCC(=O)O` [GABA]: the “response from the MOD-1 channel” value on MOD-1 channel (application of 1 mM agonist) is “little or no response”.

On to `NC(CO)(CO)CO` [Tris], for which the “block of the 5-HT3 cation channel” value at 5-HT3a channel [1] (100 mM added to buffer) is on record as “completely blocks”.

For `NCC(=O)O` [glycine], the “response from the MOD-1 channel” value on MOD-1 channel was “little or no response”.

Take `CSc1ccc2c(c1)C(N1CCN(C)CC1)Cc1ccccc1S2` (centres unmarked) [methiothepin]: the entries for the “effect on enhanced slowing response” value with C. elegans (pre-treatment of mod-1 mutants) and with C. elegans (setting [4]) were “did not further affect the defective enhanced slowing response” and “prevents food-deprived animals from exhibiting the wild-type enhanced slowing response”, respectively. Besides, the Ki at MOD-1 channel (MOD-1 in oocytes, read-out: approximate Ki, inhibition of the MOD-1 channel) was around 32 µM.

Turning to `CN1CCN2c3ccccc3Cc3ccccc3C2C1` (centres unmarked) [mianserin], the entries for the “effect on enhanced slowing response” value in the assay with C. elegans (pre-treatment of mod-1 mutants) and with C. elegans (setting [4]) were “did not further affect the defective enhanced slowing response” and “prevents food-deprived animals from exhibiting the wild-type enhanced slowing response”, respectively.

Turning to `NCCc1c[nH]c2ccc(O)cc12` [serotonin], the “oocytes with inward currents” value in assay [2] (rat cortex RNA, 1 μM serotonin for 1 minute, 100 mM Tris) is “about 10%”; in assay [2] (rat cortex, striatum or thalamus poly(A)+ RNA, 1 μM serotonin, 2 mM Co2+) it was “approximately 33%”. Further, the current elicited result at MOD-1 channel (100 nM, holding potential −70 mV) is “large inward currents”. The “concentration of agonist at which serotonin-gated currents are detectable” value on MOD-1 channel (MOD-1 receptors, HEK cell and Xenopus oocyte expression systems) was 10 to 50 nM; at 5-HT3a channel [1] (5-HT3 receptors, HEK cell and Xenopus oocyte expression systems) it was above 10 µM. The “response of 5-HT3a channels” value at 5-HT3a channel [1] (1 μM serotonin) is “no response is detectable”; on 5-HT3a channel [1] (10 μM serotonin) it was “robust current”.

σ-conotoxin GVIIIA: the IC50 on 5-HT3a channel [3] is around 0.05 µM.

Broadly, the Ki is the dissociation constant of the complex between target and ligand, obtained from inhibition or displacement.

(Values after patent US7026466B1, “Serotonin-gated anion channel” (Massachusetts Institute of Technology, priority 1999, dated 2006).)
